Test results from ChEMBL document CHEMBL1201862, “PubChem BioAssay data set” (2004).
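In this assay, cells in 96-well plates receive the compound at five concentrations for 48 hours. Endpoints are linearly interpolated between the surrounding concentrations. GI50 marks 50% less growth.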 Active and inactive are the calls of the source. Cut-off read from the data, not from the text of the source: active = GI50 up to about 1.1 µM and inactive = higher.

Experiments:
Assay in all cases: DTP human tumour cell line panel, 48 h
MDA-MB-231 = tested on: MDA-MB-231
U-251 = tested on: U-251
HCC 2998 = tested on: HCC 2998
NCI-H23 = tested on: NCI-H23
MDA-N = tested on: MDA-N
MCF7 = tested on: MCF7
HCT-116 = tested on: HCT-116
MOLT-4 = tested on: MOLT-4
A549 = tested on: A549
ACHN = tested on: ACHN
T47D = tested on: T47D
NCI/ADR-RES = tested on: NCI/ADR-RES
UACC-257 = tested on: UACC-257
NCI-H522 = tested on: NCI-H522
OVCAR-5 = tested on: OVCAR-5
SK-MEL-28 = tested on: SK-MEL-28
BT-549 = tested on: BT-549
SN12C = tested on: SN12C
EKVX = tested on: EKVX

Compound | GI50 (MDA-MB-231) | GI50 (U-251) | GI50 (HCC 2998) | GI50 (NCI-H23) | GI50 (MDA-N) | GI50 (MCF7) | GI50 (HCT-116) | GI50 (MOLT-4) | GI50 (A549) | GI50 (ACHN) | GI50 (T47D) | GI50 (NCI/ADR-RES) | GI50 (UACC-257) | GI50 (NCI-H522) | GI50 (OVCAR-5) | GI50 (SK-MEL-28) | GI50 (BT-549) | GI50 (SN12C) | GI50 (EKVX)
COc1cc2c(c3c1c(=O)c1ccccc1n3C)C=C([N+](=O)[O-])C(C)(C)O2 | 1.08 µM (active) | 26.8 µM (inactive) | 0.325 µM (active) | 0.395 µM (active) | 0.114 µM (active) | 0.358 µM (active) | 0.239 µM (active) | 0.0861 µM (active) | 0.0247 µM (active) | 0.0506 µM (active) | > 100 µM (inactive) | 2.09 µM (inactive) | < 0.0454 µM (active) | 0.365 µM (active) |  |  |  |  | 
O=C1CS/C(=N/N=C/c2cn(Cc3ccc(Cl)cc3Cl)c3ccccc23)N1 | 17 µM (inactive) | 17.3 µM (inactive) | 32.2 µM (inactive) | 58.3 µM (inactive) |  | 18.5 µM (inactive) | 44.6 µM (inactive) | 38.2 µM (inactive) | 63 µM (inactive) | 53.7 µM (inactive) | 23.1 µM (inactive) | 24.5 µM (inactive) | 67.8 µM (inactive) | 44.9 µM (inactive) | > 100 µM (inactive) | 50.4 µM (inactive) | > 100 µM (inactive) | 19.5 µM (inactive) | 20.9 µM (inactive)
COc1cccc(N2C(=O)CSC2c2cc(OC)c(OC)c(OC)c2)c1 (stereo not drawn) | 69.7 µM (inactive) | 34.8 µM (inactive) | 22.7 µM (inactive) | 29.2 µM (inactive) | 3.95 µM (inactive) | 19.4 µM (inactive) | 31.8 µM (inactive) | 29.8 µM (inactive) | 37.1 µM (inactive) | 57.7 µM (inactive) |  | 26.5 µM (inactive) | 20.9 µM (inactive) | 26.4 µM (inactive) | 54.8 µM (inactive) | 62.2 µM (inactive) | 22.1 µM (inactive) | 44.1 µM (inactive) | 49.7 µM (inactive)
COc1ccc(-c2csc(-n3c(-c4ccccc4)nc4c(Br)cc(Br)cc4c3=O)n2)cc1 | 28.5 µM (inactive) | 28.7 µM (inactive) | 28.1 µM (inactive) | 14.4 µM (inactive) | 25.4 µM (inactive) | 35.1 µM (inactive) | 22.5 µM (inactive) | 17.8 µM (inactive) | 25.5 µM (inactive) | 25.1 µM (inactive) |  | 19.6 µM (inactive) | 30.3 µM (inactive) | 19.8 µM (inactive) | 20.9 µM (inactive) | 23.2 µM (inactive) | 17.8 µM (inactive) |  | 4.52 µM (inactive)
CCOC(=O)C(C(=O)OCC)C(=O)c1ccccc1C(=O)c1ccccc1 | > 100 µM (inactive) | > 100 µM (inactive) | > 100 µM (inactive) | > 100 µM (inactive) |  | > 100 µM (inactive) | 59 µM (inactive) | 23.4 µM (inactive) | > 100 µM (inactive) | > 100 µM (inactive) | > 100 µM (inactive) | > 100 µM (inactive) | > 100 µM (inactive) | > 100 µM (inactive) | > 100 µM (inactive) |  | 33.4 µM (inactive) | > 100 µM (inactive) | 26.1 µM (inactive)
O=C1/C(=C/c2ccc(Cl)cc2)CCCc2ccccc21 | 19.6 µM (inactive) | 14.2 µM (inactive) | 22.2 µM (inactive) | 23.7 µM (inactive) | 17.1 µM (inactive) | 17.2 µM (inactive) | 13.6 µM (inactive) | 14.8 µM (inactive) | 21.3 µM (inactive) | 16.9 µM (inactive) |  | 15.1 µM (inactive) | 28.8 µM (inactive) | 11.7 µM (inactive) | 16.9 µM (inactive) | 16.6 µM (inactive) | 20.3 µM (inactive) | 18.7 µM (inactive) | 14.8 µM (inactive)
C[C@@H]1[C@H](C)N1CC(O)Cn1ccnc1[N+](=O)[O-] (stereo partly drawn) | > 100 µM (inactive) | > 100 µM (inactive) | > 100 µM (inactive) | > 100 µM (inactive) | > 100 µM (inactive) | > 100 µM (inactive) | > 100 µM (inactive) | > 100 µM (inactive) | > 100 µM (inactive) | > 100 µM (inactive) | > 100 µM (inactive) | > 100 µM (inactive) | > 100 µM (inactive) | > 100 µM (inactive) | > 100 µM (inactive) | > 100 µM (inactive) |  | > 100 µM (inactive) | > 100 µM (inactive)
CC1=C2CC3=C(C)C(=O)O[C@H]3C[C@@H](C)[C@@H]2CC1 [AMERICANOLIDE D] | > 100 µM (inactive) | > 100 µM (inactive) | > 100 µM (inactive) | > 100 µM (inactive) |  |  | > 100 µM (inactive) | 51.9 µM (inactive) |  | > 100 µM (inactive) |  | > 100 µM (inactive) | > 100 µM (inactive) |  | > 100 µM (inactive) | > 100 µM (inactive) | > 100 µM (inactive) |  | > 100 µM (inactive)
